Measurements reported in EPA's ToxValDB 9.5.
Several values for one entry are separate records, joined by “and”; a condition that tells them apart may be missing. Identical values can stand only once.

Key:
Rattus norvegicus [1] = conditions: subchronic, oral
Oryctolagus sp. = conditions: for LD50: acute, dermal
Rattus norvegicus [2] = conditions: for LD50 / LC50: acute
Mus musculus [3] = conditions: uterotrophic, Active
Mus musculus [4] = conditions: oral; for LD50: acute
Rattus norvegicus [5] = conditions: oral, M/F
[6] = duration: 3 days, injection, subcutaneous
[7] = subchronic, duration: 12 weeks, Inhalation, Long-Evans
[8] = subchronic, drinking water, impaired renal function and increased liver and kidney weight
[9] = reproduction developmental, mortality and kidney lesions

## CCCCCCCCc1ccc(Nc2ccc(CCCCCCCC)cc2)cc1 [4,4'-Dioctyldiphenylamine]
Rattus norvegicus [1]; gavage, M, Sprague-Dawley, Hematology: PT increase(tendency) APTT increase
  NOEL: 25 mg/kg-day
Oryctolagus sp.; occlusive, New Zealand
  LD50: > 7940 mg/kg
Rattus norvegicus [2]; oral, gavage, Sprague-Dawley
  LD50: > 7940 mg/kg

## O=C(O)c1ccc(O)cc1 [4-Hydroxybenzoic acid]
Mus musculus [3]; [6]
  LEL: 5 mg/kg-day

## Oc1ccc(C(c2ccc(O)cc2)C(Cl)(Cl)Cl)cc1 [2,2-Bis(4-hydroxyphenyl)-1,1,1-trichloroethane]
Mus musculus [3]; [6]
  LEL: 100 mg/kg-day

## O=C1OC(=O)C2CCCCC12 (stereo unspecified) [Hexahydrophthalic anhydride]
Oryctolagus sp.; New Zealand
  LD50: > 2000 mg/kg
Rattus norvegicus [2]; Inhalation, Sprague-Dawley
  LC50: > 1100 mg/m3
Rattus norvegicus [2]; oral
  LD50: 3310 mg/kg
Rattus norvegicus [2]; oral, Sprague-Dawley
  LD50: ≥ 2700 mg/kg and ≤ 2800 mg/kg

## O=C(Oc1ccccc1)c1ccccc1O [Phenyl salicylate]
Mus musculus [3]; duration: 3 days, oral
  LEL: 33.3 mg/kg-day

## C=CCO [Allyl alcohol]
Rattus norvegicus [1]; gavage, F, Fischer 344, Hematology: Plt increase + Blood Chemistry: BUN increase25 Bile acid increase + Absolute Organ Weight: Liver increase + Relative Organ …
  NOEL: 1.5 mg/kg-day
Rattus norvegicus [1]; gavage, M, Fischer 344, Hematology: Plt increase + Blood Chemistry: BUN increase25 Bile acid increase + Absolute Organ Weight: Liver increase + Relative Organ …
  NOEL: 3 mg/kg-day
Mus musculus [4]; gavage, Swiss-Webster
  LD50: 96 mg/kg
Oryctolagus sp.
  LD50: 89 mg/kg
Rattus norvegicus [2]; inhalation, Long-Evans
  LC50: ≥ 297 mg/m3 and ≤ 333 mg/m3
Rattus norvegicus [2]; inhalation, Sherman Wistar
  LC50: 594 mg/m3
Rattus norvegicus [2]; oral, Sherman Wistar
  LD50: 64 mg/kg
Rattus norvegicus [2]; oral, gavage, Long-Evans
  LD50: ≥ 99 mg/kg and ≤ 105 mg/kg
Rattus norvegicus [2]; oral, gavage, Osborne-Mendel
  LD50: 70 mg/kg
Rattus norvegicus [2]; chronic, duration: 15 weeks, oral, drinking water, Wistar
  NOAEL: 11.2 mg/kg-day
Rattus norvegicus [2]; [7]
  LOAEL: 95 mg/m3
  NOAEL: 47.5 mg/m3
Rattus norvegicus [5]; [8]
  LOAEL: 6.9 mg/kg-day
  NOEL: 4.8 mg/kg-day

## O=C([O-])c1cc(Oc2ccc(C(F)(F)F)cc2Cl)ccc1[N+](=O)[O-].[Na+] [Acifluorfen sodium]
Oryctolagus sp.; occlusive, Albino
  LD50: 1460 mg/kg
Oryctolagus sp.; developmental, duration: 24 days, oral, gavage, New Zealand
  NOAEL: 12 mg/kg-day
Oryctolagus sp.; reproduction developmental, duration: 24 days, oral, gavage, F, New Zealand
  NOAEL: 12 mg/kg-day
Rattus norvegicus [2]; Inhalation, albino King (Kng:(SD)BR)
  LC50: > 1.38 µg/mL
Rattus norvegicus [2]; oral, CF Nelson
  LD50: 122 mg/kg
Rattus norvegicus [2]; developmental, duration: 14 days, oral, gavage, Crl:COBS-CD-(SD)BR
  NOAEL: 20 mg/kg-day
Rattus norvegicus [5]; [9]
  LEL: 25 mg/kg-day
  NOEL: 1.25 mg/kg-day

## C=CC(C)CCC=C(C)C (stereo unspecified) [Dihydromyrcene]
Oryctolagus sp.; New Zealand
  LD50: > 5000 mg/kg
Rattus norvegicus [2]; oral, Wistar
  LD50: > 5000 mg/kg
Rattus norvegicus [2]; oral, gavage, Wistar
  LD50: > 5000 mg/kg

## CCCCCCCCCCCCCOC(=O)CCCCC(=O)OCCCCCCCCCCCCC [Bis(tridecyl) adipate]
Oryctolagus sp.
  LD50: > 2000 mg/kg
Oryctolagus sp.; semiocclusive, New Zealand
  LD50: > 5000 mg/kg
Rattus norvegicus [2]; Inhalation, Sprague-Dawley
  LC50: > 3.2 µg/mL
Rattus norvegicus [2]; oral, Sherman Wistar
  LD50: > 16000 mg/kg
Rattus norvegicus [2]; oral, gavage, Wistar
  LD50: > 15000 mg/kg
Rattus norvegicus [2]; reproduction developmental, duration: 19 days, dermal, Sprague-Dawley
  NOAEL: 800 mg/kg-day
Rattus norvegicus [2]; subchronic, duration: 13 weeks, dermal, Sprague-Dawley
  NOAEL: 800 mg/kg-day

## CC(C)(c1cc(Cl)c(O)c(Cl)c1)c1cc(Cl)c(O)c(Cl)c1 [2,2',6,6'-Tetrachlorobisphenol A]
Mus musculus [3]; duration: 3 days, injection, intraperitoneal
  LEL: 20 mg/kg-day

## CCCCCCCCCc1cc2ccccc2c(S(=O)(=O)[O-])c1CCCCCCCCC.CCCCCCCCCc1cc2ccccc2c(S(=O)(=O)[O-])c1CCCCCCCCC.[Ba+2] [Naphthalenesulfonic acid, dinonyl-, barium salt]
Oryctolagus sp.; New Zealand
  LD50: < 20000 mg/kg
Rattus norvegicus [2]; Inhalation, Wistar
  LC50: > 21 µg/mL
Rattus norvegicus [2]; oral, diet, Sprague-Dawley
  LD50: > 5000 mg/kg
Rattus norvegicus [2]; oral, gavage, Wistar
  LD50: > 5000 mg/kg

## O=[N+]([O-])c1ccc(Cl)cc1 [1-Chloro-4-nitrobenzene]
Oryctolagus sp.; developmental, duration: 13 hours, oral, gavage, New Zealand
  NOAEL: 15 mg/kg-day
Rattus norvegicus [2]; oral, gavage, Sprague-Dawley
  LD50: 530 mg/kg
Rattus norvegicus [2]; developmental, duration: 14 days, oral, gavage, Sprague-Dawley
  NOAEL: 15 mg/kg-day
Rattus norvegicus [2]; reproduction developmental, duration: 14 days, oral, gavage, F, Sprague-Dawley
  NOAEL: < 5 mg/kg-day
Rattus norvegicus [2]; reproduction developmental, duration: 167 days, oral, gavage, Sprague-Dawley, generation: F0
  NOAEL: 0.7 mg/kg-day
Rattus norvegicus [2]; reproduction developmental, duration: 167 days, oral, gavage, Sprague-Dawley, generation: F1
  NOAEL: 5 mg/kg-day
Rattus norvegicus [2]; reproduction developmental, duration: 167 days, oral, gavage, Sprague-Dawley, generation: F2
  NOAEL: 5 mg/kg-day

## CC[C@H](c1ccc(O)cc1)[C@@H](CC)c1ccc(O)cc1 [meso-Hexestrol]
Mus musculus [3]; duration: 1 days, injection, subcutaneous
  LEL: 0.00914 mg/animal
Mus musculus [3]; duration: 1.2 days, injection, subcutaneous
  LEL: 0.00914 mg/animal

## CCCCCCCCCc1cc2ccccc2c(S(=O)(=O)[O-])c1CCCCCCCCC.CCCCCCCCCc1cc2ccccc2c(S(=O)(=O)[O-])c1CCCCCCCCC.[Ca+2] [Calcium bis(dinonylnaphthalenesulphonate)]
Oryctolagus sp.; New Zealand
  LD50: > 20000 mg/kg
Rattus norvegicus [2]; Inhalation, Wistar
  LC50: > 18 µg/mL
Rattus norvegicus [2]; oral, gavage, Sprague-Dawley
  LD50: > 5000 mg/kg

## O=C(O)CCCCCCCCCCC(=O)O [Dodecanedioic acid]
Oryctolagus sp.; occlusive
  LD50: > 6000 mg/kg
Rattus norvegicus [2]; Inhalation
  LC50: > 4.3 µg/mL
Rattus norvegicus [2]; oral
  LD50: > 3000 mg/kg
Rattus norvegicus [2]; oral, gavage
  LD50: > 17000 mg/kg
Rattus norvegicus [2]; reproduction developmental, duration: 50 days, oral, gavage, CRL:CD BR
  NOAEL: 1000 mg/kg-day

## CCCCCCCCCCCCCCCCN.F [1-Hexadecanamine, hydrofluoride]
Oryctolagus sp.; reproduction developmental, duration: 13 days, oral, gavage, F, New Zealand
  LOAEL: 1.2 mg/kg-day
Rattus norvegicus [2]; reproduction developmental, duration: 10 days, oral, gavage, F, Long-Evans
  NOAEL: 30 mg/kg-day
Rattus norvegicus [2]; reproduction developmental, oral, gavage, Long-Evans, generation: F0
  NOAEL: 6 mg/kg-day
Rattus norvegicus [2]; reproduction developmental, oral, gavage, Long-Evans, generation: F1
  NOAEL: 30 mg/kg-day

## Cc1cccc([N+](=O)[O-])c1 [3-Nitrotoluene]
Rattus norvegicus [1]; diet, F, Fischer 344, Body Weight Changes: decrease + Food Consumption: decrease + Hematology: Hct decrease, Hgb decrease, RBC decrease, MCV increase, MCH …
  NOEL: < 48 mg/kg-day
Rattus norvegicus [1]; diet, M/F, Fischer 344, Body Weight Changes: decrease + Food Consumption: decrease + Hematology: Hct decrease, Hgb decrease, RBC decrease, MCV increase, MCH …
  NOEL: < 60 mg/kg-day
Mus musculus [4]
  LD50: 1230 mg/kg
Mus musculus [4]; subchronic, duration: 13 weeks, diet, B6C3F1
  LOAEL: ≥ 123 mg/kg-day and ≤ 133 mg/kg-day
Oryctolagus sp.; New Zealand
  LD50: > 20000 mg/kg
Rattus norvegicus [2]; dermal
  LD50: > 1160 mg/kg
Rattus norvegicus [2]; inhalation
  LC50: > 2.42 µg/mL
Rattus norvegicus [2]; inhalation, Sprague-Dawley
  LC50: > 881 mg/m3
Rattus norvegicus [2]; oral
  LD50: 2120 mg/kg and 1070 mg/kg and 1780 mg/kg
Rattus norvegicus [2]; oral, Sprague-Dawley
  LD50: 1070 mg/kg
Rattus norvegicus [2]; oral, gavage, Wistar
  LD50: 2200 mg/kg and 2000 mg/kg
Rattus norvegicus [2]; subchronic, duration: 13 weeks, oral, diet, F, Fischer 344
  LOAEL: 60 mg/kg-day
Rattus norvegicus [2]; subchronic, duration: 13 weeks, oral, diet, M, Fischer 344
  LOAEL: 60 mg/kg-day
